Patent US11034650B2, “Compounds useful for treating a Mannheimia haemolytica or Histophilus somni infection” (Intervet Inc., priority 2016, dated 2021)
Values after ≈ are worked out from the molar mass of the structure shown.

What was measured:
Assay type in all cases: cell-based
[1] = test system: Mannheimia haemolytica MH 6357 (M7/2, reference strain, cattle infection strain); test: MIC, broth-microdilution (CLSI VET01-A4), strain MH 6357; conditions: Mannheimia haemolytica strain MH 6357, broth-microdilution; unit assumed
Summary of the method: (§1)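 Broth microdilution per CLSI VET01-A4, using trays with a doubling dilution series of compound; results interpreted per CLSI VET01-S3. MIC taken as lowest concentration with no turbidity visible to the unaided eye.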

[2] = test system: Mannheimia haemolytica MH 6374 (ATCC 33396, reference strain); test: MIC, broth-microdilution (CLSI VET01-A4), strain MH 6374; conditions: Mannheimia haemolytica strain MH 6374, broth-microdilution; unit assumed
Summary of the method: as §1

[3] = test system: Mannheimia haemolytica MH 10720 (154, BRD field isolate); test: MIC, broth-microdilution (CLSI VET01-A4), strain MH 10720; conditions: Mannheimia haemolytica strain MH 10720, broth-microdilution; unit assumed
Summary of the method: as §1

[4] = test system: Mannheimia haemolytica MH 12587 (1071, BRD field isolate, macrolide-resistance: erm+, E+); test: MIC, broth-microdilution (CLSI VET01-A4), strain MH 12587; conditions: Mannheimia haemolytica strain MH 12587, broth-microdilution; unit assumed
Summary of the method: as §1

[5] = test system: Mannheimia haemolytica MH 13065 (XB0446-6003.9, BRD field isolate); test: MIC, broth-microdilution (CLSI VET01-A4), strain MH 13065; conditions: Mannheimia haemolytica strain MH 13065, broth-microdilution; unit assumed
Summary of the method: as §1

[6] = test system: Mannheimia haemolytica MH 13093 (XB0472-6014.1, BRD field isolate); test: MIC, broth-microdilution (CLSI VET01-A4), strain MH 13093; conditions: Mannheimia haemolytica strain MH 13093, broth-microdilution; unit assumed
Summary of the method: as §1

[7] = test system: Pasteurella multocida PM 6267 (P 2225 (L386), reference strain, mouse infection strain); test: MIC, broth-microdilution (CLSI VET01-A4), strain PM 6267; conditions: Pasteurella multocida strain PM 6267, broth-microdilution; unit assumed
Summary of the method: as §1

[8] = test system: Pasteurella multocida PM 6391 (ATCC 43137, reference strain); test: MIC, broth-microdilution (CLSI VET01-A4), strain PM 6391; conditions: Pasteurella multocida strain PM 6391, broth-microdilution; unit assumed
Summary of the method: as §1

[9] = test system: Pasteurella multocida PM 10775 (080130003051, BRD field isolate); test: MIC, broth-microdilution (CLSI VET01-A4), strain PM 10775; conditions: Pasteurella multocida strain PM 10775, broth-microdilution; unit assumed
Summary of the method: as §1

[10] = test system: Pasteurella multocida PM 12080 (IV102277-0093, BRD field isolate); test: MIC, broth-microdilution (CLSI VET01-A4), strain PM 12080; conditions: Pasteurella multocida strain PM 12080, broth-microdilution; unit assumed
Summary of the method: as §1

SMILES	MIC MH 6357 [1] [µg/mL]	MIC MH 6374 [2] [µg/mL]	MIC MH 10720 [3] [µg/mL]	MIC MH 12587 [4] [µg/mL]	MIC MH 13065 [5] [µg/mL]	MIC MH 13093 [6] [µg/mL]	MIC PM 6267 [7] [µg/mL]	MIC PM 6391 [8] [µg/mL]	MIC PM 10775 [9] [µg/mL]	MIC PM 12080 [10] [µg/mL]
CC[C@H](C)[C@H](NC(=O)c1ccc(C#Cc2ccc(CN3CCN(C)CC3)cc2)cc1)C(=O)NO [Compound 175]	6.3 (≈ 13.6 µM)	12.5 (≈ 27 µM)	3.1 (≈ 6.7 µM)	25 (≈ 54 µM)	12.5 (≈ 27 µM)	12.5 (≈ 27 µM)	0.4 (≈ 0.865 µM)	1.6 (≈ 3.46 µM)	≤ 0.1	0.8 (≈ 1.73 µM)
CSC(C)(C)[C@H](NC(=O)c1ccc(C#Cc2ccc(CNCc3ccncc3)cc2)cc1)C(=O)NO [Compound 241]	0.4 (≈ 0.796 µM)	0.8 (≈ 1.59 µM)	≤ 0.1	0.8 (≈ 1.59 µM)	0.4 (≈ 0.796 µM)	0.4 (≈ 0.796 µM)	≤ 0.1	≤ 0.1	≤ 0.1	≤ 0.1
CC(=O)C(NC(=O)c1ccc(C#Cc2ccc(CN3CCCC3)cc2)cc1)C(=O)NO (stereo not drawn) [Compound 403]	25 (≈ 59.6 µM)	12.5 (≈ 29.8 µM)	12.5 (≈ 29.8 µM)	6.3 (≈ 15 µM)	25 (≈ 59.6 µM)	25 (≈ 59.6 µM)	100 (≈ 238 µM)	0.8 (≈ 1.91 µM)	6.3 (≈ 15 µM)	3.1 (≈ 7.39 µM)
Cc1ccc(CNCc2ccc(C#Cc3ccc(C(=O)NC(C(=O)NO)C(C)(C)O)cc3)cc2)cc1 (stereo not drawn) [Compound 233]	0.8 (≈ 1.65 µM)	0.4 (≈ 0.824 µM)	≤ 0.1	1.6 (≈ 3.3 µM)	0.4 (≈ 0.824 µM)	0.8 (≈ 1.65 µM)	≤ 0.1	0.2 (≈ 0.412 µM)	≤ 0.1	≤ 0.1
CC[C@H](C)[C@H](NC(=O)c1ccc(C#Cc2ccc(CNCc3ccccn3)cc2)cc1)C(=O)NO [Compound 180]	0.8 (≈ 1.7 µM)	1.6 (≈ 3.4 µM)	0.2 (≈ 0.425 µM)	3.1 (≈ 6.59 µM)	1.6 (≈ 3.4 µM)	1.6 (≈ 3.4 µM)	0.4 (≈ 0.85 µM)	1.6 (≈ 3.4 µM)	≤ 0.1	0.8 (≈ 1.7 µM)
COc1ccc(CNCc2ccc(C#Cc3ccc(C(=O)N[C@@H](C(C)=O)C(=O)NO)cc3)cc2)cc1 [Compound 401]	1.6 (≈ 3.3 µM)	1.6 (≈ 3.3 µM)	3.1 (≈ 6.38 µM)	0.4 (≈ 0.824 µM)	1.6 (≈ 3.3 µM)	1.6 (≈ 3.3 µM)	6.3 (≈ 13 µM)	0.2 (≈ 0.412 µM)	1.6 (≈ 3.3 µM)	0.8 (≈ 1.65 µM)
